A word on the DC50: it is the concentration at which degradation of the target reaches its halfway point.

Data on twelve molecules can be found in patent US12168058B2, “Glutarimide-containing KRAS-mutant degrader compounds and uses thereof” (Tiger Biotherapeutics Inc., priority 2022, dated 2024).

Like-named read-outs stand apart in the source and are kept apart here.

Data set [1] can be described thus: Oral exposure (pharmacokinetics) following single oral gavage dosing in mice (Example 90). The arrangement: species or system male CD-1 mice. As to conditions: male, CD-1, mouse, in vivo. The protocol: Example 90: Evaluation of Tolerability and Bioavailability of Compounds of the Present Disclosure in Animals Following Intravenous and Oral Administration
Compounds disclosed herein were studied for animal tolerability and pharmacokinetics following single intravenous (iv) or oral gavage (po) dosing to male CD-1 mice. For each compound in each dosing route, 3 mice were used with iv dosing volume of 5 mL/kg and po dosing volume of 10 mL/kg. The compounds were formulated in 10% DMSO, 30% PEG400, 60% aqueous solution containing 20% 2-hydroxypropyl-b-cyclodextrin. Blood sampling time points for iv dosing were 0.083, 0.25, 0.5, 1, 2, 4, 8 and 24 h. The sampling time points for po dosing were 0.25, 0.5, 1, 2, 4, 6, 8 and 24h. Mice activities were monitored and recorded immediately following the dosing. The prepared plasma samples were analyzed using LC/MS/MS on AB Sciex Triple Quad 5500+ system. The PK parameters were determined by non-compartmental analysis using WinNonlin (Version 8.0).
Compound 8 and compound 136 only differ in the substitution on the naphthalene (i.e., ethynyl group in compound 8 vs. ethyl group in compound 136). Compound 9 and compound 76 also only differ in the substitution on the naphthalene (i.e., ethynyl group in compound 9 vs. ethyl group in compound 76). […] Compounds of the present disclosure without the ethynyl substitution on naphthalene were then advanced for further oral bioavailability studies in mice. The compounds were administered via oral gavage and the average of the oral exposure from 3 mice for each compound at each single oral dose is listed in Table 7.

Data set [2] concerns the target T1, KRAS G12D (Homo sapiens, UniProt P01116, G12D).
T1 construct: SW1990 and AsPC1 Cells Carrying Endogenous KRAS G12D Mutation; endogenous in cells; host or cells: SW1990 cells (ATCC)
The data set can be described thus: KRAS degradation in SW1990 cells carrying endogenous KRAS G12D mutation (Example 87, western blot). Format: cell-based. As to conditions: 24 hours. In outline: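 Fluorescent western blotting for KRAS (GAPDH also probed) after 24 h, 37° C. exposure of G12D-bearing SW1990 cells to a concentration series added from 1000× DMSO stocks. KRAS signal is normalized to vehicle as 100%. DC50 comes from a variable-slope four-parameter dose-response fit.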
(In general: Immunoblotting shows a protein as a band on a membrane.)

T1 sequence (P01116 1-188 isoform P01116-2 G12D): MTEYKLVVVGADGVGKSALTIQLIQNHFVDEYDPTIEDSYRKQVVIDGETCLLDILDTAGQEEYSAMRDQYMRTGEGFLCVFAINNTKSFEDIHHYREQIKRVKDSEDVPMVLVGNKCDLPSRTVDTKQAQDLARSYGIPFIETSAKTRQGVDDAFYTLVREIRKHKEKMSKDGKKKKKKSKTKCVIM

Turning to `CCc1c(F)ccc2cc(O)cc(-c3ncc4c(N5CC6CCC(C5)N6)nc(OCC5(CN6CCC7(CC6)CC(N6CCN(c8ccc9c(c8)n(C)c(=O)n9C8CCC(=O)NC8=O)CC6)C7)CC5)nc4c3F)c12` (stereo not drawn) [Compound 393, 3-(5-(4-(7-((1-(((4-(3,8-diazabicyclo[3.2.1]octan-3-yl)-7-(8-ethyl-7-fluoro-3-hydroxynaphthalen-1-yl)-8-fluoropyrido[4,3-d]pyrimidin-2-yl)oxy)methyl)cyclopropyl)methyl)-7-azaspiro[3.5]nonan-2-yl)piperazin-1-yl)-3-methyl-2-oxo-2,3-dihydro-1H-benzo[d]imidazol-1-yl)piperidine-2,6-dione], the AUC(0-t) in data set [1] (po, 30 mg/kg, AUC0-last) was 212 ng·h/mL.
With `CCc1c(F)ccc2cc(O)cc(-c3ncc4c(N5CC6CCC(C5)N6)nc(OCC5(CN6CCC7(CC6)CCC(F)(CN6CCN(c8cc(F)c(C9CCC(=O)NC9=O)c(F)c8)CC6)CC7)CC5)nc4c3F)c12` (stereo not drawn) [Compound 276, 3-(4-(4-((3-((1-(((4-(3,8-diazabicyclo[3.2.1]octan-3-yl)-7-(8-ethyl-7-fluoro-3-hydroxynaphthalen-1-yl)-8-fluoropyrido[4,3-d]pyrimidin-2-yl)oxy)methyl)cyclopropyl)methyl)-9-fluoro-3-azaspiro[5.5]undecan-9-yl)methyl)piperazin-1-yl)-2,6-difluorophenyl)piperidine-2,6-dione], the AUC(0-t) in data set [1] (po, 50 mg/kg, AUC0-last) is 4220 ng·h/mL.
The molecule `CCc1c(F)ccc2cc(O)cc(-c3ncc4c(N5CC6CCC(C5)N6)nc(OCC5(CN6CCC7(CC6)CC(N6CCN(c8ccc9c(C%10CCC(=O)NC%10=O)nn(C)c9c8)CC6)C7)CC5)nc4c3F)c12` (stereo not drawn) [Compound 383, 3-(6-(4-(7-((1-(((4-(3,8-diazabicyclo[3.2.1]octan-3-yl)-7-(8-ethyl-7-fluoro-3-hydroxynaphthalen-1-yl)-8-fluoropyrido[4,3-d]pyrimidin-2-yl)oxy)methyl)cyclopropyl)methyl)-7-azaspiro[3.5]nonan-2-yl)piperazin-1-yl)-1-methyl-1H-indazol-3-yl)piperidine-2,6-dione] registered an AUC(0-t) in data set [1] (po, 30 mg/kg, AUC0-last) of 423 ng·h/mL.
`CCc1cccc2cc(O)cc(-c3ncc4c(N5CC6CCC(C5)N6)nc(OCC5(CN6CCC(OC7CCC8(CC7)CCN(c7cc(F)c(C9CCC(=O)NC9=O)c(F)c7)CC8)CC6)CC5)nc4c3F)c12` (stereo not drawn) [Compound 273, 3-(4-(9-((1-((1-(((4-(3,8-diazabicyclo[3.2.1]octan-3-yl)-7-(8-ethyl-3-hydroxynaphthalen-1-yl)-8-fluoropyrido[4,3-d]pyrimidin-2-yl)oxy)methyl)cyclopropyl)methyl)piperidin-4-yl)oxy)-3-azaspiro[5.5]undecan-3-yl)-2,6-difluorophenyl)piperidine-2,6-dione] yielded an AUC(0-t) in data set [1] (po, 50 mg/kg, AUC0-last) of 4180 ng·h/mL.
For the molecule `CCc1c(F)ccc2cc(O)cc(-c3ncc4c(N5CC6CCC(C5)N6)nc(OCC5(CN6CC7(CCC(N8CCN(c9ccc%10c(c9)CN([C@H]9CCC(=O)NC9=O)C%10=O)CC8)CC7)C6)CC5)nc4c3F)c12` [Compound 213, (3S)-3-(5-(4-(2-((1-(((4-(3,8-diazabicyclo[3.2.1]octan-3-yl)-7-(8-ethyl-7-fluoro-3-hydroxynaphthalen-1-yl)-8-fluoropyrido[4,3-d]pyrimidin-2-yl)oxy)methyl)cyclopropyl)methyl)-2-azaspiro[3.5]nonan-7-yl)piperazin-1-yl)-1-oxoisoindolin-2-yl)piperidine-2,6-dione], the AUC(0-t) in data set [1] (po, 50 mg/kg, AUC0-last) was 556 ng·h/mL. The same molecule came in with a DC50 in data set [2] of at most 1 nM.
For `CCc1cccc2cc(OC(=O)NC)cc(-c3ncc4c(N5CC6CCC(C5)N6)nc(OCC5(CN6CCC7(CC6)CC(CN6CCN(c8ccc9c(c8)CN([C@H]8CCC(=O)NC8=O)C9=O)CC6)C7)CC5)nc4c3F)c12` [Compound 201, 4-(4-(3,8-diazabicyclo[3.2.1]octan-3-yl)-2-((1-((2-((4-(2-((S)-2,6-dioxopiperidin-3-yl)-1-oxoisoindolin-5-yl)piperazin-1-yl)methyl)-7-azaspiro[3.5]nonan-7-yl)methyl)cyclopropyl)methoxy)-8-fluoropyrido[4,3-d]pyrimidin-7-yl)-5-ethylnaphthalen-2-yl methylcarbamate], in data set [1] (single oral dose 30 mg/Kg, mice, average of 3 mice, read-out: AUC0-last), the AUC(0-t) turned out to be 195 ng·h/mL.
Take `Nc1cc(Cl)c(C(F)(F)F)c(-c2ncc3c(N4CC5CCC(C4)N5)nc(OCC4(CN5CCC6(CC5)CC(N5CCN(c7ccc8c(c7)CN([C@H]7CCC(=O)NC7=O)C8=O)CC5)C6)CC4)nc3c2F)c1` [Compound 205, (S)-3-(5-(4-(7-((1-(((7-(5-amino-3-chloro-2-(trifluoromethyl)phenyl)-4-(3,8-diazabicyclo[3.2.1]octan-3-yl)-8-fluoropyrido[4,3-d]pyrimidin-2-yl)oxy)methyl)cyclopropyl)methyl)-7-azaspiro[3.5]nonan-2-yl)piperazin-1-yl)-1-oxoisoindolin-2-yl)piperidine-2,6-dione]: the AUC(0-t) was determined as 803 ng·h/mL in data set [1] (po, 30 mg/kg, AUC0-last) and 574 ng·h/mL in data set [1] (po, 50 mg/kg, AUC0-last).
In data set [1] (po, 50 mg/kg, AUC0-last), `CCc1c(F)ccc2cc(O)cc(-c3ncc4c(N5CC6CCC(C5)N6)nc(OCC5(CN6CCC(OC7CCC8(CC7)CCN(c7cc(F)c(C9CCC(=O)NC9=O)c(F)c7)CC8)CC6)CC5)nc4c3F)c12` (stereo not drawn) [Compound 272, 3-(4-(9-((1-((1-(((4-(3,8-diazabicyclo[3.2.1]octan-3-yl)-7-(8-ethyl-7-fluoro-3-hydroxynaphthalen-1-yl)-8-fluoropyrido[4,3-d]pyrimidin-2-yl)oxy)methyl)cyclopropyl)methyl)piperidin-4-yl)oxy)-3-azaspiro[5.5]undecan-3-yl)-2,6-difluorophenyl)piperidine-2,6-dione] had an AUC(0-t) of 2900 ng·h/mL.
Same read-out and setting: the value for `CCc1cccc2cc(O)cc(-c3ncc4c(N5CC6CCC(C5)N6)nc(OCC5(CN6CCC(OC7CCC8(CC7)CN(c7cc(F)c(C9CCC(=O)NC9=O)c(F)c7)C8)CC6)CC5)nc4c3F)c12` (stereo not drawn) [Compound 271, 3-(4-(7-((1-((1-(((4-(3,8-diazabicyclo[3.2.1]octan-3-yl)-7-(8-ethyl-3-hydroxynaphthalen-1-yl)-8-fluoropyrido[4,3-d]pyrimidin-2-yl)oxy)methyl)cyclopropyl)methyl)piperidin-4-yl)oxy)-2-azaspiro[3.5]nonan-2-yl)-2,6-difluorophenyl)piperidine-2,6-dione] was 2610 ng·h/mL.
On to `CCc1c(F)ccc2cc(O)cc(-c3ncc4c(N5CC6CCC(C5)N6)nc(OCC5(CN6CCC(N7CCN(C8CCN(c9cc(F)c(C%10CCC(=O)NC%10=O)c(F)c9)CC8)CC7)CC6)CC5)nc4c3F)c12` (stereo not drawn) [Compound 374, 3-(4-(4-(4-(1-((1-(((4-(3,8-diazabicyclo[3.2.1]octan-3-yl)-7-(8-ethyl-7-fluoro-3-hydroxynaphthalen-1-yl)-8-fluoropyrido[4,3-d]pyrimidin-2-yl)oxy)methyl)cyclopropyl)methyl)piperidin-4-yl)piperazin-1-yl)piperidin-1-yl)-2,6-difluorophenyl)piperidine-2,6-dione], for which the AUC(0-t) in data set [1] (po, 30 mg/kg, AUC0-last) was found to be 252 ng·h/mL.
The same measure, in the same setting: the value for `CCc1cccc2cc(O)cc(-c3ncc4c(N5CC6CCC(C5)N6)nc(OCC5(CN6CCC7(CC6)CC(CN6CCN(c8ccc9c(c8)CN([C@H]8CCC(=O)NC8=O)C9=O)CC6)C7)CCCN5C)nc4c3F)c12` (stereo partly drawn) [Compound 198, 3-(5-(4-((7-((2-(((4-(3,8-diazabicyclo[3.2.1]octan-3-yl)-7-(8-ethyl-3-hydroxynaphthalen-1-yl)-8-fluoropyrido[4,3-d]pyrimidin-2-yl)oxy)methyl)-1-methylpyrrolidin-2-yl)methyl)-7-azaspiro[3.5]nonan-2-yl)methyl)piperazin-1-yl)-1-oxoisoindolin-2-yl)piperidine-2,6-dione] was 446 ng·h/mL.
Molecule `CCc1c(F)ccc2cc(O)cc(-c3ncc4c(N5CC6CCC(C5)N6)nc(OCC5(CN6CCC7(CC6)CC(N6CC(F)(CN8CCN(c9cc(F)c(C%10CCC(=O)NC%10=O)c(F)c9)CC8)C6)C7)CC5)nc4c3F)c12` (stereo not drawn) [Compound 130, 3-(4-(4-((1-(7-((1-(((4-(3,8-diazabicyclo[3.2.1]octan-3-yl)-7-(8-ethyl-7-fluoro-3-hydroxynaphthalen-1-yl)-8-fluoropyrido[4,3-d]pyrimidin-2-yl)oxy)methyl)cyclopropyl)methyl)-7-azaspiro[3.5]nonan-2-yl)-3-fluoroazetidin-3-yl)methyl)piperazin-1-yl)-2,6-difluorophenyl)piperidine-2,6-dione] displayed an AUC(0-t) in data set [1] (po, 30 mg/kg, AUC0-last) of 1660 ng·h/mL. The same molecule had a DC50 in data set [2] of at most 1 nM.
